{
  "source": "patent US20030109552A1",
  "about": "“Use of insulin sensitisers for treating renal diseases” (SmithKline Beecham p.l.c., priority 1994, published 2003)",
  "type_in_all_cases": "in vivo, rat",
  "key": {"[1]": {"system": "Zucker fatty (fa/fa) rats", "experiment": "Urinary total protein (Bio-Rad protein assay, 24 h urine) in Zucker fatty rats, 9 month study", "procedure": "A second study was performed in Zucker rats over a period of 9 months to investigate the longitudinal effects of the drug on systolic blood pressure and various indices of renal function, two of which are exemplified here. […] A third group of Zucker fatty rats and a further group of lean rats were given diet alone throughout the period of study. After dosing with the test compound, at monthly intervals measurements were made of systolic blood pressure, urinary total protein and urinary N-acetyl β-D-glucosaminidase (NAG) activity. Twenty-four hour urine collections, made in metabolism cages, were aliquoted and frozen at −70° C. until required for assay. Urinary protein concentration was measured using the Bio-Rad protein assay as modified for use in a 96-well microtitre plate. The assay is a dye-binding assay based on the differential colour change of a dye in response to various concentrations of protein (Bradford, Anal. Biochem., 72, 248, 1976). After a period of incubation with Dye Reagent, diluted urine samples are read at an optical density of 595 nm using a Molecular Devices multiplate reader."}, "[2]": {"system": "Zucker fatty (fa/fa) rats", "experiment": "Urinary N-acetyl β-D-glucosaminidase (NAG) activity in Zucker fatty rats, 9 month study", "procedure": "(§1) A second study was performed in Zucker rats over a period of 9 months to investigate the longitudinal effects of the drug on systolic blood pressure and various indices of renal function, two of which are exemplified here. In one arm of the study, the drug was given in the diet (50 μmole/kg of diet) from aged 6-7weeks in Zucker fatty (fa/fa) rats, whilst in a second arm of the study, drug treatment as above was delayed until proteinuria had become established after 4 months, indicative of structural damage already present in the kidneys. A third group of Zucker fatty rats and a further group of lean rats were given diet alone throughout the period of study.\n(§2) After dosing with the test compound, at monthly intervals measurements were made of systolic blood pressure, urinary total protein and urinary N-acetyl β-D-glucosaminidase (NAG) activity.\nTwenty-four hour urine collections, made in metabolism cages, were aliquoted and frozen at −70° C. until required for assay.\nNAG activity was assayed using a reagent kit on a Hitachi 717 analyser (both supplied by Boehringer Mannheim UK, Lewes). Enzyme activity was measured by monitoring the rate of chlorophenol (570 nm) released from the substrate chlorophenol red-β-D-glucosaminide."}, "[3]": {"system": "Zucker fatty (fa/fa) rats", "experiment": "Systolic blood pressure (tail cuff) in Zucker fatty rats, 9 month study", "procedure": "as §1, §2\nRats were enclosed in custom-built restrainers and placed on a shelf in a warming cabinet, whose temperature was controlled at approximately 30° C. An inflatable cuff with integral pulse sensor was attached to the tail of each rat. After warming for 20-30 min the tail cuff was inflated and deflated automatically and a measurement of systolic blood pressure made using an IITC Non-Invasive Blood Pressure Monitor. This cycle was repeated several times for each rat until stable values of blood pressure were obtained."}, "obese Zucker fa/fa rats": {"system": "obese Zucker fa/fa rats", "experiment": "Renal histopathology in obese Zucker fa/fa rats, 3 months dietary administration", "set-up": "key to Chronic Nephropathy (histopathological severity, kidney): 0: None seen; ±: Minimal; +: Mild; ++: Moderate; +++: Marked", "procedure": "Obese Zucker rats are known to develop chronic nephropathy in addition to hyperlipidaemia, hyperinsulinaemia and peripheral insulin resistance (Kasiske et al 1985).\n5-[4-[2-(N-methyl-N-(2-pyridyl)amino)ethoxy]benzyl]thiazolidine-2,4-dione (herein after referred to as ‘test compound’) was administered to 2-3 month old obese Zucker fa/fa rats by dietary administration to provide a daily dose over a period of 3 months ranging from 2.0-7.0 μmole/kg body weight. A group of age-matched obese Zucker fa/fa rats were given the same diet without the addition of the test compound, as was a group of lean Fa/? rats. At the end of the study, all of the control Zucker fa/fa rats had chronic nephropathy which involved dilated tubules, atrophied or hyperplastic tubular epithelial cells, thickened tubular basement membranes, segmented glomeruli or global glomerulosclerosis."}, "[4]": {"settings": "Zucker fatty (fa/fa) rats treated from the age of 6-7 weeks for 9 months via the diet"}, "[5]": {"settings": "drug treatment commenced after proteinuria had become established"}},
  "data": [
    {"molecule": "CN(CCOc1ccc(CC2SC(=O)NC2=O)cc1)c1ccccn1", "note": "(stereo not drawn) [Test Compound, 5-[4-[2-(N-methyl-N-(2-pyridyl)amino)ethoxy]benzyl]thiazolidine-2,4-dione]", "values": [
      {"measurement": "rate of development of proteinuria", "setting": "[1]; [4]", "result": "markedly reduced"},
      {"measurement": "rate of increase in the urinary protein concentration", "setting": "[1]; [5]", "result": "marked reduction of the rate of increase"},
      {"measurement": "elevation of urinary NAG activity", "setting": "[2]; [4]", "result": "markedly reduced"},
      {"measurement": "urinary NAG activity (further rise)", "setting": "[2]; [5]", "result": "prevented from rising further"},
      {"measurement": "development of hypertension", "setting": "[3]; [4]", "result": "prevented the development of hypertension"},
      {"measurement": "systolic blood pressure (further rise)", "setting": "[3]; [5]", "result": "prevented from rising further"},
      {"measurement": "Chronic Nephropathy (histopathological severity, kidney)", "setting": "obese Zucker fa/fa rats; individual fatty Zucker rats, test compound in diet 2.0-7.0 μmole/kg body weight daily", "result": "++"},
      {"measurement": "incidence and degree of chronic nephropathy compared to control Zucker fa/fa rats", "setting": "obese Zucker fa/fa rats; obese Zucker fa/fa rats, diet, 2.0-7.0 μmole/kg daily", "result": "reduction in the incidence and degree of chronic nephropathy"},
      {"measurement": "hydronephrosis seen in treated rats", "setting": "obese Zucker fa/fa rats; obese Zucker fa/fa rats, diet, 2.0-7.0 μmole/kg daily, controls 4/9", "result": "No hydronephrosis was seen"}
    ]}
  ]
}
